Measurements: US8357694B2, “Substituted 5,6-dihydro-6-phenylbenzo[F]isoquinolin-2-amine compounds” (ArQule, Inc., priority 2008, dated 2013)
Structures can show the parent of a compound that is named as a salt.

Row | Compound | melting point
1 | CC(C)(C)OC(=O)N1CCN(CCc2ccc(Nc3ncc4c(n3)-c3ccccc3C(c3ccccc3C(F)(F)F)C4)cc2)CC1 (centres unmarked) [Example 72, tert-butyl 4-(4-(6-(2-(trifluoromethyl)phenyl)-5,6-dihydrobenzo[h]quinazolin-2-ylamino)phenethyl)piperazine-1-carboxylate] | 234 to 235 °C
2 | Clc1ccc([C@H]2Cc3cnc(Nc4ccc(CCN5CCOCC5)cc4)nc3-c3ccccc32)cc1Cl [Example 51, (R)-6-(3,4-dichlorophenyl)-N-(4-(2-morpholinoethyl)phenyl)-5,6-dihydrobenzo[h]quinazolin-2-amine] | 166 to 167 °C
3 | COCCN1CCN(CCc2ccc(Nc3ncc4c(n3)-c3ccccc3[C@H](c3ccc(F)c(F)c3)C4)cc2)CC1 (as salt: hydrochloride) [Example 83, N-(4-(2-(4-(2-(S)-6-(3,4-difluorophenyl)-N-(4-(2-(4-(2-methoxyethyl)piperazin-1-yl)ethyl)phenyl)-5,6-dihydrobenzo[h]quinazolin-2-amine hydrochloride] | 190 to 192 °C
4 | COCCN1CCN(CCc2ccc(Nc3ncc4c(n3)-c3ccccc3C(c3ccc(Cl)cc3Cl)C4)cc2)CC1 (centres unmarked) (as salt: hydrochloride) | 208 to 212 °C
5 | CN(C)CCNCCc1ccc(Nc2ncc3c(n2)-c2ccccc2C(c2cccc(Br)c2)C3)cc1 (centres unmarked) [Example 44, N^1-(4-(6-(3-bromophenyl)-5,6-dihydrobenzo[h]quinazolin-2-ylamino)phenethyl)-N^2,N^2-dimethylethane-1,2-diamine] | 75 to 77 °C
6 | COCCNCCc1ccc(Nc2ncc3c(n2)-c2ccccc2C(c2ccccc2C(F)(F)F)C3)cc1 (centres unmarked) [Example 70, N-(4-(2-(2-methoxyethylamino)ethyl)phenyl)-6-(2-(trifluoromethyl)phenyl)-5,6-dihydrobenzo[h]quinazolin-2-amine] | 61 to 62 °C
7 | COCCN1CCN(CCc2ccc(Nc3ncc4c(n3)-c3ccccc3C(c3ccc(F)c(F)c3)C4)cc2)CC1 (centres unmarked) [Example 59, 6-(3,4-difluorophenyl)-N-(4-(2-(4-(2-methoxyethyl)piperazin-1-yl)ethyl)phenyl)-5,6-dihydrobenzo[h]quinazolin-2-amine] | 267 to 270 °C
8 | CC(C)(C)OC(=O)N1CCC[C@@H](Nc2ncc3c(n2)-c2ccccc2[C@@H](c2ccc(Cl)c(Cl)c2)C3)C1 | 85 to 87 °C
9 | Clc1ccccc1[C@H]1Cc2cnc(Nc3ccc(CCN4CCCCC4)cc3)nc2-c2ccccc21 (as salt: hydrochloride) | 164 to 167 °C
10 | CC(O)CN(CCc1ccc(Nc2ncc3c(n2)-c2ccccc2C(c2cccc(Br)c2)C3)cc1)Cc1ccccc1 (centres unmarked) [Example 39, 1-(benzyl(4-(6-(3-bromophenyl)-5,6-dihydrobenzo[h]quinazolin-2-ylamino)phenethyl)amino)propan-2-ol] | 90 to 92 °C
11 | Fc1ccccc1[C@@H]1Cc2cnc(Nc3ccc(CCN4CCCCC4)cc3)nc2-c2ccccc21 (as salt: hydrochloride) [Example 67, (R)-6-(2-fluorophenyl)-N-(4-(2-(piperidin-1-yl)ethyl)phenyl)-5,6-dihydrobenzo[h]quinazolin-2-amine hydrochloride] | 170 to 174 °C
12 | CN(CCc1ccc(Nc2ncc3c(n2)-c2ccccc2[C@H](c2ccc(F)c(F)c2)C3)cc1)C1CCCCC1 (as salt: hydrochloride) [Example 85, (S)—N-(4-(2-(cyclohexyl(methyl)amino)ethyl)phenyl)-6-(3,4-difluorophenyl)-5,6-dihydrobenzo[h]quinazolin-2-amine hydrochloride] | 96 to 98 °C
13 | Fc1ccc([C@H]2Cc3cnc(Nc4ccc(CCN5CCCCC5)cc4)nc3-c3ccccc32)cc1F (as salt: hydrochloride) [Example 91, (R)-6-(3,4-difluorophenyl)-N-(4-(2-(piperidin-1-yl)ethyl)phenyl)-5,6-dihydrobenzo[h]quinazolin-2-amine hydrochloride] | 165 to 167 °C
14 | Fc1ccc([C@@H]2Cc3cnc(Nc4ccc(CCN5CCCCC5)cc4)nc3-c3ccccc32)cc1F (as salt: hydrochloride) [Example 84, (S)-6-(3,4-difluorophenyl)-N-(4-(2-(piperidin-1-yl)ethyl)phenyl)-5,6-dihydrobenzo[h]quinazolin-2-amine hydrochloride] | 163 to 165 °C
15 | CCCCN(C)CCc1ccc(Nc2ncc3c(n2)-c2ccccc2[C@H](c2ccc(F)c(F)c2)C3)cc1 (as salt: hydrochloride) [Example 89, (S)—N-(4-(2-(butyl(methyl)amino)ethyl)phenyl)-6-(3,4-difluorophenyl)-5,6-dihydrobenzo[h]quinazolin-2-amine hydrochloride] | 130 to 132 °C
16 | Clc1ccc(C2Cc3cnc(Nc4ccc(CCN5CCCCC5)cc4)nc3-c3ccccc32)c(Cl)c1 (centres unmarked) (as salt: hydrochloride) [Example 76, 6-(2,4-dichlorophenyl)-N-(4-(2-(piperidin-1-yl)ethyl)phenyl)-5,6-dihydrobenzo[h]quinazolin-2-amine hydrochloride] | 225 to 230 °C
17 | CN1CCN(CCc2ccc(Nc3ncc4c(n3)-c3ccccc3C(c3cccc(Br)c3)C4)cc2)CC1 (centres unmarked) [Example 28, 6-(3-bromophenyl)-N-(4-(2-(4-methylpiperazin-1-yl)ethyl)phenyl)-5,6-dihydrobenzo[h]quinazolin-2-amine] | 100 to 102 °C
18 | COCCN1CCN(CCc2cccc(Nc3ncc4c(n3)-c3ccccc3[C@H](c3ccc(Cl)c(Cl)c3)C4)c2)CC1 (as salt: hydrochloride) | 220 to 225 °C
19 | CN(CCc1ccccc1)CCc1ccc(Nc2ncc3c(n2)-c2ccccc2C(c2cccc(Br)c2)C3)cc1 (centres unmarked) [Example 37, 6-(3-bromophenyl)-N-(4-(2-(methyl(phenethyl)amino)ethyl)phenyl)-5,6-dihydrobenzo[h]quinazolin-2-amine] | 80 to 82 °C
20 | COCCNCCc1ccc(Nc2ncc3c(n2)-c2ccccc2[C@H](c2ccc(F)c(F)c2)C3)cc1 (as salt: hydrochloride) [Example 86, (S)-6-(3,4-difluorophenyl)-N-(4-(2-(2-methoxyethylamino)ethyl)phenyl)-5,6-dihydrobenzo[h]quinazolin-2-amine hydrochloride] | 85 to 87 °C
21 | CCCCN(C)CCc1ccc(Nc2ncc3c(n2)-c2ccccc2C(c2ccc(F)c(F)c2)C3)cc1 (centres unmarked) (as salt: hydrochloride) [Example 58, N-(4-(2-(butyl(methyl)amino)ethyl)phenyl)-6-(3,4-difluorophenyl)-5,6-dihydrobenzo[h]quinazolin-2-amine] | 85 to 91 °C
22 | Nc1ncc2c(n1)-c1ccccc1[C@@H](c1ccc(Cl)c(Cl)c1)C2 | 159 to 160 °C

Continued, values first:

Row | melting point | Compound
23 | 182 to 186 °C | CN1CCN(CCc2cccc(Nc3ncc4c(n3)-c3ccccc3[C@H](c3ccccc3F)C4)c2)CC1 (as salt: hydrochloride) [Example 161, (R)-6-(2-fluorophenyl)-N-(3-(2-(4-methylpiperazin-1-yl)ethyl)phenyl)-5,6-dihydrobenzo[h]quinazolin-2-amine hydrochloride]
24 | 135 to 145 °C | CCCCN(C)CCc1ccc(Nc2ncc3c(n2)-c2ccccc2[C@H](c2ccc(Cl)c(Cl)c2)C3)cc1 (as salt: hydrochloride) [Example 105, (S)—N-(4-(2-(butyl(methyl)amino)ethyl)phenyl)-6-(3,4-dichlorophenyl)-5,6-dihydrobenzo[h]quinazolin-2-amine hydrochloride salt]
25 | 160 to 162 °C | CN(CCc1ccc(Nc2ncc3c(n2)-c2ccccc2[C@H](c2ccc(F)cc2)C3)cc1)C1CCCCC1 [Example 102, (S)—N-(4-(2-(cyclohexyl(methyl)amino)ethyl)phenyl)-6-(4-fluorophenyl)-5,6-dihydrobenzo[h]quinazolin-2-amine]
26 | 199 to 201 °C | COCCN1CCN(CCc2cc(Nc3ncc4c(n3)-c3ccccc3[C@H](c3ccccc3F)C4)ccc2F)CC1 (as salt: hydrochloride) [Example 175, (R)—N-(4-fluoro-3-(2-(4-(2-methoxyethyl)piperazin-1-yl)ethyl)phenyl)-6-(2-fluorophenyl)-5,6-dihydrobenzo[h]quinazolin-2-amine hydrochloride salt]
27 | 205 to 210 °C | Brc1ccc([C@@H]2Cc3cnc(Nc4ccc(CCN5CCCCC5)cc4)nc3-c3ccccc32)cc1 (as salt: hydrochloride) [Example 103, (S)-6-(4-bromophenyl)-N-(4-(2-(piperidin-1-yl)ethyl)phenyl)-5,6-dihydrobenzo[h]quinazolin-2-amine hydrochloride salt]
28 | 175 to 185 °C | CN(CCc1ccc(Nc2ncc3c(n2)-c2ccccc2[C@H](c2ccc(Cl)c(Cl)c2)C3)cc1)C1CCCCC1 (as salt: hydrochloride) [Example 106, (S)—N-(4-(2-(cyclohexyl(methyl)amino)ethyl)phenyl)-6-(3,4-dichlorophenyl)-5,6-dihydrobenzo[h]quinazolin-2-amine hydrochloride salt]
29 | 282 to 284 °C | N#Cc1c(N)ncc2c1-c1ccccc1C(c1ccc(Cl)cc1Cl)C2 (centres unmarked) [Example 151, 2-amino-6-(2,4-dichlorophenyl)-5,6-dihydrobenzo[f]isoquinoline-1-carbonitrile]
30 | 162 to 166 °C | CCCCN(C)CCc1cccc(Nc2ncc3c(n2)-c2ccccc2[C@H](c2ccc(Cl)c(Cl)c2)C3)c1 (as salt: hydrochloride) [Example 168, (S)—N-(3-(2-(butyl(methyl)amino)ethyl)phenyl)-6-(3,4-dichlorophenyl)-5,6-dihydrobenzo[h]quinazolin-2-amine hydrochloride]
31 | 104 to 110 °C | N#Cc1c(NCCCN2CCCC2)ncc2c1-c1ccccc1C(c1ccc(Cl)c(Cl)c1)C2 (centres unmarked) [Example 180, 6-(3,4-dichlorophenyl)-2-(3-(pyrrolidin-1-yl)propylamino)-5,6-dihydrobenzo[f]isoquinoline-1-carbonitrile]
32 | 170 to 175 °C | CN(CCc1ccccc1)CCc1ccc(Nc2ncc3c(n2)-c2ccccc2[C@H](c2ccc(Cl)c(Cl)c2)C3)cc1 (as salt: hydrochloride) [Example 104, (S)-6-(3,4-dichlorophenyl)-N-(4-(2-(methyl(phenethyl)amino)ethyl)phenyl)-5,6-dihydrobenzo[h]quinazolin-2-amine hydrochloride salt]
